Experimental data published in patent US4081441A, “Antibacterial agents” (priority 1977, dated 1978).
Read-outs that look alike come from different tables or passages of the source.

What was measured:
Cl. chauvoei = assay: M.I.C. against anaerobic bacteria, Cl. chauvoei; type: cell-based; conditions: strain A9561
[1] = test system: Pseudomonas aeruginosa A9843A; type: in vivo, mice; conditions: mouse, in vivo
Pseudomonas aeruginosa [2] = assay: Minimum Inhibitory Concentration, tube dilution, overnight incubation at 37° C.; type: cell-based
Pseudomonas aeruginosa [3] = assay: Minimum Bactericidal Concentration of BL-P1937, at least 99.9% kill, three inoculum sizes; type: cell-based
Protocol: The bactericidal in vitro activity of BL-P1937 against Pseudomonas aeruginosa strains was also determined. Three tests were run, using initial inoculum sizes of 2.4 × 10^5, 1.6 × 10^5 and 1.4 × 10^5 cells/ml., respectively, and the M.B.C. was defined as the lowest concentration of antibiotic in mcg./ml. needed to kill at least 99.9% of viable Pseudomonas cells.

[4] = Mouse blood (serum) antibiotic levels after single intramuscular dose; type: in vivo; conditions: im, mice, 40 mg./kg. i.m., read-out: Blood Level
Protocol: Serum antibiotic levels from mice administered a single intramuscular dose of 40 mg./kg. of BL-[…] or carbenicillin are shown below.

[5] = mice, 40 mg./kg. i.m., Literature values, cited from earlier work
Pseudomonas aeruginosa [6] = conditions: prior art; cited from earlier work
[7] = mice, 40 mg./kg. i.m., Literature values, cited from earlier work; remark: listed apart in the source

For `CC1(C)S[C@@H]2[C@H](NC(=O)[C@H](NC(=O)c3n[nH]c(=O)[nH]c3=O)c3ccc(O)cc3)C(=O)N2[C@H]1C(=O)O` [BL-P1908, sodium D(-)-6-(α-(1,2,4-triazine-3,5-dione-6-carboxamido)-4-hydroxyphenylacetamido)penicillanate], the MIC (Cl. chauvoei) was 4 µg/mL and the “equally effective dosage, drug alone” value [1] was 5 mg/kg.
Work on `CC1(C)S[C@@H]2[C@H](NC(=O)[C@H](NC(=O)c3n[nH]c(=S)[nH]c3=O)c3ccc(O)cc3)C(=O)N2[C@H]1C(=O)O` [BL-P1937, sodium D(-)-6-(α-(1,2,4-triazine-3-thione-5-one-6-carboxamido)-4-hydroxyphenylacetamido)-penicillanate] yielded an MIC (Pseudomonas aeruginosa [2]; strain A9910, Test 1) of 1 µg/mL, an MIC (Pseudomonas aeruginosa [2]; strain A9910, Test 2) of 2 µg/mL and an MIC (Pseudomonas aeruginosa [2]; strain A9910, Test 3) of 4 µg/mL. It also gave an MIC (Pseudomonas aeruginosa [2]; strain A9926, Test 1) of 2 µg/mL, an MIC (Pseudomonas aeruginosa [2]; strain A9926, Test 2) of 4 µg/mL and an MIC (Pseudomonas aeruginosa [2]; strain A9926, Test 3) of 2 µg/mL. The MIC (Pseudomonas aeruginosa [2]; strain A20126, Test 2) was 8 µg/mL, the MIC (Pseudomonas aeruginosa [2]; strain A20126, Test 3) was 4 µg/mL and the MIC (Pseudomonas aeruginosa [2]; strain A20128, Test 1) was 2 µg/mL. For the same compound, the MIC (Pseudomonas aeruginosa [2]; strain A20128, Test 2) was 2 µg/mL, the MIC (Pseudomonas aeruginosa [2]; strain A20128, Test 3) was 2 µg/mL and the MIC (Pseudomonas aeruginosa [2]; strain A20227, Test 1) was 4 µg/mL. It also gave an MIC (Pseudomonas aeruginosa [2]; strain A20227, Test 2) of 4 µg/mL, an MIC (Pseudomonas aeruginosa [2]; strain A20227, Test 3) of 2 µg/mL and an MIC (Pseudomonas aeruginosa [2]; strain A20228, Test 1) of 2 µg/mL. It also gave an MIC (Pseudomonas aeruginosa [2]; strain A20228, Test 2) of 8 µg/mL, an MIC (Pseudomonas aeruginosa [2]; strain A20228, Test 3) of 2 µg/mL and an MIC (Pseudomonas aeruginosa [2]; strain A20546, Test 1) of 2 µg/mL. It also gave an MIC (Pseudomonas aeruginosa [2]; strain A20546, Test 2) of 2 µg/mL, an MIC (Pseudomonas aeruginosa [2]; strain A20546, Test 3) of 2 µg/mL and an MIC (Pseudomonas aeruginosa [2]; strain A20557, Test 1) of 2 µg/mL. It also gave an MIC (Pseudomonas aeruginosa [2]; strain A20557, Test 2) of 4 µg/mL, an MIC (Pseudomonas aeruginosa [2]; strain A20557, Test 3) of 4 µg/mL and an MIC (Pseudomonas aeruginosa [2]; strain A20574, Test 1) of 4 µg/mL. For the same compound, the MIC (Pseudomonas aeruginosa [2]; strain A20574, Test 2) was 2 µg/mL, the MIC (Pseudomonas aeruginosa [2]; strain A20574, Test 3) was 2 µg/mL and the MIC (Pseudomonas aeruginosa [2]; strain A20602, Test 1) was 4 µg/mL. For the same compound, the MIC (Pseudomonas aeruginosa [2]; strain A20602, Test 2) was 8 µg/mL, the MIC (Pseudomonas aeruginosa [2]; strain A20602, Test 3) was 2 µg/mL and the MIC (Pseudomonas aeruginosa [2]; strain A20616, Test 1) was 2 µg/mL. The MIC (Pseudomonas aeruginosa [2]; strain A20616, Test 2) was 4 µg/mL, the MIC (Pseudomonas aeruginosa [2]; strain A20616, Test 3) was 4 µg/mL and the MIC (Pseudomonas aeruginosa [2]; strain A20641, Test 1) was 8 µg/mL. It also gave an MIC (Pseudomonas aeruginosa [2]; strain A20641, Test 2) of 8 µg/mL, an MIC (Pseudomonas aeruginosa [2]; strain A20641, Test 3) of 8 µg/mL and an MIC (Pseudomonas aeruginosa [2]; strain A20717, Test 1) of 16 µg/mL. The MIC (Pseudomonas aeruginosa [2]; strain A20717, Test 2) was 32 µg/mL, the MIC (Pseudomonas aeruginosa [2]; strain A20717, Test 3) was 16 µg/mL and the MIC (Pseudomonas aeruginosa [2]; strain A20726, Test 1) was 2 µg/mL. For the same compound, the MIC (Pseudomonas aeruginosa [2]; strain A20726, Test 2) was 8 µg/mL, the MIC (Pseudomonas aeruginosa [2]; strain A20726, Test 3) was 8 µg/mL and the MIC (Pseudomonas aeruginosa [2]; strain A21336, Test 1) was 4 µg/mL. The MIC (Pseudomonas aeruginosa [2]; strain A21336, Test 2) was 8 µg/mL, the MIC (Pseudomonas aeruginosa [2]; strain A21336, Test 3) was 4 µg/mL and the MBC (Pseudomonas aeruginosa [3]; strain A9843A, Test 1, inoculum 2.4 × 10^5) was 125 µg/mL. The MBC (Pseudomonas aeruginosa [3]; strain A9910, Test 1, inoculum 2.4 × 10^5, read-out: M.B.C.) was 125 µg/mL, the MBC (Pseudomonas aeruginosa [3]; strain A9910, Test 2, inoculum 1.6 × 10^5, read-out: M.B.C.) was 250 µg/mL and the MBC (Pseudomonas aeruginosa [3]; strain A9910, Test 3, inoculum 1.4 × 10^5, read-out: M.B.C.) was 500 µg/mL. It also gave an MBC (Pseudomonas aeruginosa [3]; strain A9926, Test 1, inoculum 2.4 × 10^5, read-out: M.B.C.) of 250 µg/mL, an MBC (Pseudomonas aeruginosa [3]; strain A9926, Test 2, inoculum 1.6 × 10^5, read-out: M.B.C.) of 1000 µg/mL and an MBC (Pseudomonas aeruginosa [3]; strain A9926, Test 3, inoculum 1.4 × 10^5, read-out: M.B.C.) of 250 µg/mL. It also gave an MBC (Pseudomonas aeruginosa [3]; strain A20126, Test 1, inoculum 2.4 × 10^5, read-out: M.B.C.) of 16 µg/mL, an MBC (Pseudomonas aeruginosa [3]; strain A20126, Test 2, inoculum 1.6 × 10^5, read-out: M.B.C.) of 63 µg/mL and an MBC (Pseudomonas aeruginosa [3]; strain A20126, Test 3, inoculum 1.4 × 10^5, read-out: M.B.C.) of 63 µg/mL. For the same compound, the MBC (Pseudomonas aeruginosa [3]; strain A20128, Test 1, inoculum 2.4 × 10^5, read-out: M.B.C.) was 16 µg/mL, the MBC (Pseudomonas aeruginosa [3]; strain A20128, Test 2, inoculum 1.6 × 10^5, read-out: M.B.C.) was 16 µg/mL and the MBC (Pseudomonas aeruginosa [3]; strain A20128, Test 3, inoculum 1.4 × 10^5, read-out: M.B.C.) was 63 µg/mL. The MBC (Pseudomonas aeruginosa [3]; strain A20227, Test 1, inoculum 2.4 × 10^5, read-out: M.B.C.) was 63 µg/mL, the MBC (Pseudomonas aeruginosa [3]; strain A20227, Test 2, inoculum 1.6 × 10^5, read-out: M.B.C.) was 8 µg/mL and the MBC (Pseudomonas aeruginosa [3]; strain A20227, Test 3, inoculum 1.4 × 10^5, read-out: M.B.C.) was 16 µg/mL. The MBC (Pseudomonas aeruginosa [3]; strain A20228, Test 1, inoculum 2.4 × 10^5, read-out: M.B.C.) was 125 µg/mL, the MBC (Pseudomonas aeruginosa [3]; strain A20228, Test 2, inoculum 1.6 × 10^5, read-out: M.B.C.) was 500 µg/mL and the MBC (Pseudomonas aeruginosa [3]; strain A20228, Test 3, inoculum 1.4 × 10^5, read-out: M.B.C.) was 250 µg/mL. It also gave an MBC (Pseudomonas aeruginosa [3]; strain A20546, Test 1, inoculum 2.4 × 10^5, read-out: M.B.C.) of 250 µg/mL, an MBC (Pseudomonas aeruginosa [3]; strain A20546, Test 2, inoculum 1.6 × 10^5, read-out: M.B.C.) of 1000 µg/mL and an MBC (Pseudomonas aeruginosa [3]; strain A20546, Test 3, inoculum 1.4 × 10^5, read-out: M.B.C.) of 500 µg/mL. The MBC (Pseudomonas aeruginosa [3]; strain A20557, Test 1, inoculum 2.4 × 10^5, read-out: M.B.C.) was 250 µg/mL, the MBC (Pseudomonas aeruginosa [3]; strain A20557, Test 2, inoculum 1.6 × 10^5, read-out: M.B.C.) was 1000 µg/mL and the MBC (Pseudomonas aeruginosa [3]; strain A20557, Test 3, inoculum 1.4 × 10^5, read-out: M.B.C.) was 500 µg/mL. For the same compound, the MBC (Pseudomonas aeruginosa [3]; strain A20574, Test 1, inoculum 2.4 × 10^5, read-out: M.B.C.) was 250 µg/mL, the MBC (Pseudomonas aeruginosa [3]; strain A20574, Test 2, inoculum 1.6 × 10^5, read-out: M.B.C.) was 250 µg/mL and the MBC (Pseudomonas aeruginosa [3]; strain A20574, Test 3, inoculum 1.4 × 10^5, read-out: M.B.C.) was 500 µg/mL. It also gave an MBC (Pseudomonas aeruginosa [3]; strain A20602, Test 1, inoculum 2.4 × 10^5, read-out: M.B.C.) of 250 µg/mL, an MBC (Pseudomonas aeruginosa [3]; strain A20602, Test 2, inoculum 1.6 × 10^5, read-out: M.B.C.) of 500 µg/mL and an MBC (Pseudomonas aeruginosa [3]; strain A20602, Test 3, inoculum 1.4 × 10^5, read-out: M.B.C.) of 500 µg/mL. It also gave an MBC (Pseudomonas aeruginosa [3]; strain A20616, Test 1, inoculum 2.4 × 10^5, read-out: M.B.C.) of 125 µg/mL, an MBC (Pseudomonas aeruginosa [3]; strain A20616, Test 2, inoculum 1.6 × 10^5, read-out: M.B.C.) of 250 µg/mL and an MBC (Pseudomonas aeruginosa [3]; strain A20616, Test 3, inoculum 1.4 × 10^5, read-out: M.B.C.) of 500 µg/mL. It also gave an MBC (Pseudomonas aeruginosa [3]; strain A20641, Test 1, inoculum 2.4 × 10^5, read-out: M.B.C.) of 125 µg/mL, an MBC (Pseudomonas aeruginosa [3]; strain A20641, Test 2, inoculum 1.6 × 10^5, read-out: M.B.C.) of 250 µg/mL and an MBC (Pseudomonas aeruginosa [3]; strain A20641, Test 3, inoculum 1.4 × 10^5, read-out: M.B.C.) of 250 µg/mL. For the same compound, the MBC (Pseudomonas aeruginosa [3]; strain A20717, Test 1, inoculum 2.4 × 10^5, read-out: M.B.C.) was 500 µg/mL, the MBC (Pseudomonas aeruginosa [3]; strain A20717, Test 2, inoculum 1.6 × 10^5, read-out: M.B.C.) was 1000 µg/mL and the MBC (Pseudomonas aeruginosa [3]; strain A20717, Test 3, inoculum 1.4 × 10^5, read-out: M.B.C.) was > 1000 µg/mL. It also gave an MBC (Pseudomonas aeruginosa [3]; strain A20726, Test 1, inoculum 2.4 × 10^5, read-out: M.B.C.) of 32 µg/mL, an MBC (Pseudomonas aeruginosa [3]; strain A20726, Test 2, inoculum 1.6 × 10^5, read-out: M.B.C.) of 250 µg/mL and an MBC (Pseudomonas aeruginosa [3]; strain A20726, Test 3, inoculum 1.4 × 10^5, read-out: M.B.C.) of 500 µg/mL. It also gave an MBC (Pseudomonas aeruginosa [3]; strain A21336, Test 1, inoculum 2.4 × 10^5, read-out: M.B.C.) of 250 µg/mL, an MBC (Pseudomonas aeruginosa [3]; strain A21336, Test 2, inoculum 1.6 × 10^5, read-out: M.B.C.) of 500 µg/mL and an MBC (Pseudomonas aeruginosa [3]; strain A21336, Test 3, inoculum 1.4 × 10^5, read-out: M.B.C.) of 500 µg/mL. The concentration at 0.25 h ([4]; 15 min.) was 19900 ng/mL, the concentration at 0.5 h ([4]; 30 min.) was 10300 ng/mL and the concentration at 1 h ([4]; 60 min.) was < 2200 ng/mL. For the same compound, the concentration at 1.5 h ([4]; 90 min.) was < 2200 ng/mL.
For `CC1(C)S[C@@H]2[C@H](NC(=O)C(C(=O)O)c3ccccc3)C(=O)N2[C@H]1C(=O)O` (stereo partly drawn) [Carbenicillin, reference compound], the “Blood Level” value ([5]; 15 min.) is given as 18100 ng/mL, the “Blood Level” value ([5]; 30 min.) is given as 8100 ng/mL and the “Blood Level” value ([5]; 60 min.) is given as < 4600 ng/mL. For the same compound, the “Blood Level” value ([5]; 90 min.) was < 4600 ng/mL, the “potency against Pseudomonas aeruginosa” value (Pseudomonas aeruginosa [6]) was “relatively low potency” and the “Blood Level” value ([7]; 15 min.) was 18100 ng/mL. The “Blood Level” value ([7]; 30 min.) was 8100 ng/mL, the “Blood Level” value ([7]; 60 min.) was < 4600 ng/mL and the “Blood Level” value ([7]; 90 min.) was < 4600 ng/mL.
